“And” between values parts separate entries of the source, which are not always exact repeats. Identical values can stand only once.
Tested on: 242566-281-R-J2-PDC complex spheroid viability
Test: Anticancer human tumor 242566-281-R-J2-PDC patient-derived pancreatic carcinoma cell line growth inhibition [CLK]
Conditions: for viability, T/C: stronger effect = lower value
Summary of the method: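 Patient-derived tumor cells grown as complex spheroids with HUVEC endothelial cells and mesenchymal stem cells, treated with drug combinations. Concentrations descend in half-log steps from near clinical Cmax, or from 10 microM if Cmax unknown.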

[1] = curve of first compound, second compound 0.0316 µM
[2] = curve of first compound, second compound 0.1 µM
[3] = curve of first compound, second compound 0.316 µM
[4] = curve of first compound, second compound 1 µM
[5] = curve of first compound, second compound 3.16 µM
[6] = curve of first compound, second compound 10 µM
[7] = second compound 0.0316 µM, first compound 0.0316 µM
[8] = second compound 0.0316 µM, first compound 0.1 µM
[9] = second compound 0.0316 µM, first compound 0.316 µM
[10] = second compound 0.0316 µM, first compound 1 µM
[11] = second compound 0.1 µM, first compound 0.0316 µM
[12] = second compound 0.1 µM, first compound 0.1 µM
[13] = second compound 0.1 µM, first compound 0.316 µM
[14] = second compound 0.1 µM, first compound 1 µM
[15] = second compound 0.316 µM, first compound 0.0316 µM
[16] = second compound 0.316 µM, first compound 0.1 µM
[17] = second compound 0.316 µM, first compound 0.316 µM
[18] = second compound 0.316 µM, first compound 1 µM
[19] = second compound 1 µM, first compound 0.0316 µM
[20] = second compound 1 µM, first compound 0.1 µM
[21] = second compound 1 µM, first compound 0.316 µM
[22] = second compound 1 µM, first compound 1 µM
[23] = second compound 3.16 µM, first compound 0.0316 µM
[24] = second compound 3.16 µM, first compound 0.1 µM
[25] = second compound 3.16 µM, first compound 0.316 µM
[26] = second compound 3.16 µM, first compound 1 µM
[27] = second compound 10 µM, first compound 0.0316 µM
[28] = second compound 10 µM, first compound 0.1 µM
[29] = second compound 10 µM, first compound 0.316 µM
[30] = second compound 10 µM, first compound 1 µM
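Also: spheroids exposed to compounds for 7 days before readout.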
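For viability, T/C in this document: 100% = DMSO vehicle control wells.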

How did the viability, T/C (compound 0.0316 µM) turn out when CC1(C)CCC(CN2CCN(c3ccc(C(=O)NS(=O)(=O)c4ccc(NCC5CCOCC5)c([N+](=O)[O-])c4)c(Oc4cnc5[nH]ccc5c4)c3)CC2)=C(c2ccc(Cl)cc2)C1 was run?
The viability, T/C was 110% and 84.2%.

And the viability, T/C (compound 0.1 µM)?
Its viability, T/C is 89.7% and 93.9%.

What about the viability, T/C (compound 0.316 µM) of the same compound?
Its viability, T/C is 109% and 102%.

What about the viability, T/C (compound 1 µM) of the same compound?
Its viability, T/C is 117% and 132%.

What about the viability, T/C (compound 3.16 µM) of the same compound?
The viability, T/C was 109% and 122%.

What about the viability, T/C (compound 10 µM) of the same compound?
The viability, T/C was 14.1% and 73.1%.

What about the IC50 (curve of compound) of the same compound?
Its IC50 is 6.41 µM and > 10 µM.

What does the source list for Nc1ccccc1NC(=O)c1ccc(CNC(=O)OCc2cccnc2)cc1?
viability, T/C (compound 0.0316 µM): 97.8% and 80.4%; viability, T/C (compound 0.1 µM): 82% and 115%; viability, T/C (compound 0.316 µM): 98.7% and 85.3%; viability, T/C (compound 1 µM): 84.6% and 107%; viability, T/C (compound 3.16 µM): 68% and 110%; viability, T/C (compound 10 µM): 14.5% and 41.5%; IC50 (curve of compound): 4.64 µM and 8.46 µM

Which IC50 [1] does the source give for CC(Nc1ccc2c(c1)OCCn1cc(N3C(=O)OCC3C(F)F)nc1-2)C(N)=O (stereo not drawn) + CNC(=O)c1ccc(Nc2nc(OC3CCCC3)c3c(-c4ccc5nc(C)oc5c4)c[nH]c3n2)c(OC)c1 here?
Its IC50 is 2.14 µM.

And the IC50 [2]?
The IC50 was 1.77 µM.

What about the IC50 [3] of the same compound?
Its IC50 is 0.69 µM.

What about the IC50 [4] of the same compound?
The IC50 was 0.0924 µM.

And the IC50 [5]?
Its IC50 is < 0.0316 µM.

And the IC50 [6]?
The IC50 was < 0.0316 µM.

And the viability, T/C [7]?
The viability, T/C was 84.6%.

What about the viability, T/C [8] of the same compound?
The viability, T/C was 91.4%.

What about the viability, T/C [9] of the same compound?
The viability, T/C was 75.9%.

And the viability, T/C [10]?
The viability, T/C was 62.4%.

What about the viability, T/C (second compound 0.0316 µM, first compound 3.16 µM) of the same compound?
The viability, T/C was 44.4%.

What about the viability, T/C (second compound 0.0316 µM, first compound 10 µM) of the same compound?
Its viability, T/C is 30.6%.

What about the viability, T/C [11] of the same compound?
The viability, T/C was 100%.

What about the viability, T/C [12] of the same compound?
Its viability, T/C is 96.5%.

And the viability, T/C [13]?
The viability, T/C was 70.4%.

And the viability, T/C [14]?
Its viability, T/C is 62.2%.

And the viability, T/C (second compound 0.1 µM, first compound 3.16 µM)?
Its viability, T/C is 40.3%.

And the viability, T/C (second compound 0.1 µM, first compound 10 µM)?
The viability, T/C was 28.2%.

What about the viability, T/C [15] of the same compound?
The viability, T/C was 82.3%.

What about the viability, T/C [16] of the same compound?
The viability, T/C was 77.6%.

What about the viability, T/C [17] of the same compound?
The viability, T/C was 59.6%.

What about the viability, T/C [18] of the same compound?
Its viability, T/C is 44%.

What about the viability, T/C (second compound 0.316 µM, first compound 3.16 µM) of the same compound?
The viability, T/C was 32.8%.

And the viability, T/C (second compound 0.316 µM, first compound 10 µM)?
Its viability, T/C is 21.6%.

And the viability, T/C [19]?
Its viability, T/C is 63.9%.

And the viability, T/C [20]?
Its viability, T/C is 47.2%.

And the viability, T/C [21]?
The viability, T/C was 38.5%.

What about the viability, T/C [22] of the same compound?
Its viability, T/C is 26.8%.

And the viability, T/C (second compound 1 µM, first compound 3.16 µM)?
Its viability, T/C is 19.8%.

And the viability, T/C (second compound 1 µM, first compound 10 µM)?
The viability, T/C was 14.2%.

And the viability, T/C [23]?
The viability, T/C was 44.4%.

And the viability, T/C [24]?
The viability, T/C was 32.9%.

And the viability, T/C [25]?
The viability, T/C was 27.5%.

What about the viability, T/C [26] of the same compound?
The viability, T/C was 22.8%.

What about the viability, T/C (second compound 3.16 µM, first compound 3.16 µM) of the same compound?
The viability, T/C was 15.7%.

What about the viability, T/C (second compound 3.16 µM, first compound 10 µM) of the same compound?
Its viability, T/C is 11.6%.

What about the viability, T/C [27] of the same compound?
Its viability, T/C is 41%.

And the viability, T/C [28]?
The viability, T/C was 33.6%.

And the viability, T/C [29]?
Its viability, T/C is 28.2%.

And the viability, T/C [30]?
The viability, T/C was 20.3%.

What about the viability, T/C (second compound 10 µM, first compound 3.16 µM) of the same compound?
The viability, T/C was 15.1%.

And the viability, T/C (second compound 10 µM, first compound 10 µM)?
The viability, T/C was 10.6%.

How did the IC50 [1] turn out when CCN1CCN(Cc2ccc(Nc3ncc(F)c(-c4cc(F)c5nc(C)n(C(C)C)c5c4)n3)nc2)CC1 + CN1CCN(c2cc(C(=O)Nc3cc4cc(-c5cnn(C)c5)ccc4cn3)ccn2)CC1 was run?
The IC50 was > 1 µM.

What about the IC50 [2] of the same compound?
The IC50 was > 1 µM.

What about the IC50 [3] of the same compound?
The IC50 was < 0.00316 µM.

What about the IC50 [4] of the same compound?
Its IC50 is < 0.00316 µM.

What about the IC50 [5] of the same compound?
The IC50 was < 0.00316 µM.

What about the IC50 [6] of the same compound?
Its IC50 is < 0.00316 µM.

And the viability, T/C (second compound 0.0316 µM, first compound 0.00316 µM)?
Its viability, T/C is 89.9%.

And the viability, T/C (second compound 0.0316 µM, first compound 0.01 µM)?
Its viability, T/C is 109%.

What about the viability, T/C [7] of the same compound?
The viability, T/C was 101%.

And the viability, T/C [8]?
Its viability, T/C is 109%.

And the viability, T/C [9]?
The viability, T/C was 122%.

And the viability, T/C [10]?
The viability, T/C was 138%.

What about the viability, T/C (second compound 0.1 µM, first compound 0.00316 µM) of the same compound?
The viability, T/C was 91.7%.

What about the viability, T/C (second compound 0.1 µM, first compound 0.01 µM) of the same compound?
The viability, T/C was 83.6%.

And the viability, T/C [11]?
The viability, T/C was 95.5%.

What about the viability, T/C [12] of the same compound?
Its viability, T/C is 96.3%.

What about the viability, T/C [13] of the same compound?
Its viability, T/C is 122%.

What about the viability, T/C [14] of the same compound?
The viability, T/C was 123%.

What about the viability, T/C (second compound 0.316 µM, first compound 0.00316 µM) of the same compound?
Its viability, T/C is 39.4%.

And the viability, T/C (second compound 0.316 µM, first compound 0.01 µM)?
The viability, T/C was 40.8%.

And the viability, T/C [15]?
The viability, T/C was 48.7%.

And the viability, T/C [16]?
The viability, T/C was 54.3%.

And the viability, T/C [17]?
Its viability, T/C is 69.4%.

And the viability, T/C [18]?
The viability, T/C was 61.1%.

And the viability, T/C (second compound 1 µM, first compound 0.00316 µM)?
The viability, T/C was 5.41%.

What about the viability, T/C (second compound 1 µM, first compound 0.01 µM) of the same compound?
The viability, T/C was 4.89%.

What about the viability, T/C [19] of the same compound?
Its viability, T/C is 5.53%.

And the viability, T/C [20]?
Its viability, T/C is 6.44%.

What about the viability, T/C [21] of the same compound?
The viability, T/C was 9.19%.

And the viability, T/C [22]?
Its viability, T/C is 9.16%.

What about the viability, T/C (second compound 3.16 µM, first compound 0.00316 µM) of the same compound?
Its viability, T/C is 6.93%.

What about the viability, T/C (second compound 3.16 µM, first compound 0.01 µM) of the same compound?
Its viability, T/C is 7.07%.

And the viability, T/C [23]?
The viability, T/C was 6.34%.

What about the viability, T/C [24] of the same compound?
Its viability, T/C is 7.18%.

What about the viability, T/C [25] of the same compound?
The viability, T/C was 8.35%.

And the viability, T/C [26]?
Its viability, T/C is 8.64%.

What about the viability, T/C (second compound 10 µM, first compound 0.00316 µM) of the same compound?
Its viability, T/C is 2.36%.

What about the viability, T/C (second compound 10 µM, first compound 0.01 µM) of the same compound?
Its viability, T/C is 1.58%.

And the viability, T/C [27]?
The viability, T/C was 1.75%.

And the viability, T/C [28]?
Its viability, T/C is 1.54%.

And the viability, T/C [29]?
The viability, T/C was 1.24%.

What about the viability, T/C [30] of the same compound?
Its viability, T/C is 0.71%.
